# In ChEMBL document CHEMBL4346751, “Comparative analysis of stilbene and benzofuran neolignan derivatives as acetylcholinesterase inhibitors with neuroprotective and anti-inflammatory activities” (Bioorg Med Chem Lett, 2019):
# The source made the active and inactive calls. The calls are words filed in the database; no cut-off is given here.
# Assays:
# [1] = target: Acetylcholinesterase (Electrophorus electricus) (UniProt O42275); experiment: (§1) Inhibition of electric eel AChE using acetylthiocholine iodide as substrate pretreated for 15 mins followed by substrate addition and measured after 60 mins by Ellman's method
# Chain of Acetylcholinesterase (Electrophorus electricus) (O42275 24-633 limits assumed): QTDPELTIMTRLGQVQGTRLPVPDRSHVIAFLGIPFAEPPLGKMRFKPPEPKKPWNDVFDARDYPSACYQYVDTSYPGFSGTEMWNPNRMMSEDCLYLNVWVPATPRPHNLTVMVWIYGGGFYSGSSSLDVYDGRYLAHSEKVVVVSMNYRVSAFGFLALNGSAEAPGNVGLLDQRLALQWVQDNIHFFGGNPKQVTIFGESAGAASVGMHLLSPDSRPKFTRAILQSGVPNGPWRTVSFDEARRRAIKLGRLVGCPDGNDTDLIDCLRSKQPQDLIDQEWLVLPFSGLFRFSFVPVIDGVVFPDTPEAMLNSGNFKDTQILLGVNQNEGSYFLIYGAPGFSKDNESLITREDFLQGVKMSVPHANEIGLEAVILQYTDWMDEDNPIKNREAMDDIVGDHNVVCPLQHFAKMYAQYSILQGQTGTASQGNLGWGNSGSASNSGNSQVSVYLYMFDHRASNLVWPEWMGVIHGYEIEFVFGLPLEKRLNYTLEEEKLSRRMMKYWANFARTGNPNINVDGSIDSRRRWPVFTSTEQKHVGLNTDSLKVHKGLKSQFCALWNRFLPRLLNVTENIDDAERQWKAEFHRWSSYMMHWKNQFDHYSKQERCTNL
# RAW264.7 = experiment: Antiinflammatory activity in mouse RAW264.7 cells assessed as inhibition of LPS/IFNgamma-induced NO production by measuring NO level preincubated for 2 hrs and followed by LPS/IFNgamma addition and measured after 24 hrs by Griess assay; type: functional, cell-based
# Acetylcholinesterase = Acetylcholinesterase (Electrophorus electricus, UniProt O42275); experiment: as §1
# Chain of Acetylcholinesterase (O42275 whole entry): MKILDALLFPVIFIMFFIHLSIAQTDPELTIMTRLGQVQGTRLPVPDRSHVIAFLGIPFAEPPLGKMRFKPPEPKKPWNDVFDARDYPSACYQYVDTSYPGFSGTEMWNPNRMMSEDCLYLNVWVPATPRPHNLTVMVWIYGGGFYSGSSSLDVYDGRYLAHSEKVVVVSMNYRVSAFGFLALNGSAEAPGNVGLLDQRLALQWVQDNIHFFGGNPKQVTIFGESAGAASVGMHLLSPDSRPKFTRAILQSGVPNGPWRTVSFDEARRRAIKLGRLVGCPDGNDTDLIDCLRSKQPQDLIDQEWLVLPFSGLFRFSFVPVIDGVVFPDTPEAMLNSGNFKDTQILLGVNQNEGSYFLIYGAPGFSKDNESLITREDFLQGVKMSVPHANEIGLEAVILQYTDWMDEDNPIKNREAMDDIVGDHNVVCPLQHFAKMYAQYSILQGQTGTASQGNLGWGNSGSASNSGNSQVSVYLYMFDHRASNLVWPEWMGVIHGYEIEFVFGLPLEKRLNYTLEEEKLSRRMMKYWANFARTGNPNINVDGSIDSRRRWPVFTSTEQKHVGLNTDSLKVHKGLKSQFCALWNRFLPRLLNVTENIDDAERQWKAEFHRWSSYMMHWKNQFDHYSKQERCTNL
# PC-12 [2] = experiment: Neuroprotective activity against TBHP-induced cellular damage in rat PC12 cells assessed as cell viability at 10 uM pretreated for 1 hr followed by TBHP addition and measured after 3 hrs by CCK8 assay (reference value: 27.3%); type: functional; conditions: for viability at 10 µM: read-out: Activity
# [3] = target: Acetylcholinesterase (Electrophorus electricus) (UniProt O42275); experiment: Inhibition of electric eel AChE at 12.5 uM using acetylthiocholine iodide as substrate pretreated for 15 mins followed by substrate addition and measured after 60 mins by Ellman's method relative to control
# PC-12 [4] = experiment: Toxicity in TBHP treated rat PC12 cells assessed as reduction cell viability at 10 uM pretreated for 1 hr followed by TBHP addition and measured after 3 hrs by CCK8 assay; type: cell-based; conditions: pc-12, 3 h
Compound,inhibition [1],IC50 (RAW264.7) [µM],inhibition (RAW264.7),IC50 (Acetylcholinesterase) [µM],viability at 10 µM (PC-12 [2]) [%],inhibition [3] [%],Activity (PC-12 [4]),Activity (PC-12 [2])
COC(=O)CCc1cc(OC)c2c(c1)[C@H](C(=O)OC)[C@@H](c1ccc(O)c(OC)c1)O2,inactive,231,Dose-dependent effect,–,–,–,–,–
COc1cc(/C=C/C(=O)OCCCc2cc(OC)c3c(c2)C(COC(=O)/C=C/c2ccc(O)c(OC)c2)C(c2ccc(O)c(OC)c2)O3)ccc1O (stereo unspecified),Dose-dependent effect,9.4,Dose-dependent effect,29.8,72.7,–,–,–
COc1cc(/C=C/c2ccc3c(c2)[C@H](c2cc(OC)cc(OC)c2)[C@@H](c2ccc(O)cc2)O3)cc(OC)c1,–,24,Dose-dependent effect,11.7,75.5,> 50,–,–
Oc1ccc([C@H]2Oc3ccc(/C=C/c4cc(O)cc(O)c4)cc3[C@@H]2c2cc(O)cc(O)c2)cc1,–,80.2,Dose-dependent effect,4.3,60.2,> 50,–,–
COC(=O)/C=C/c1cc(OC)c2c(c1)[C@H](C(=O)OC)[C@@H](c1ccc(O)c(OC)c1)O2 (racemic),inactive,51.4,Dose-dependent effect,–,–,–,–,–
COc1cc([C@H]2Oc3c(OC)cc(CCCO)cc3[C@@H]2CO)ccc1O [DIHYDRODEHYDRODICONIFERY ALCOHOL],inactive,60.4,Dose-dependent effect,–,–,–,–,–
COc1cc([C@@H]2Oc3c(OC)cc(/C=C/C(=O)NCCc4ccc(O)cc4)cc3[C@H]2C(=O)NCCc2ccc(O)cc2)ccc1O [GROSSAMIDE],Dose-dependent effect,24.7,Dose-dependent effect,39.3,–,–,Toxic,inactive
COc1cc(/C=C/c2ccc(O)cc2)cc(OC)c1 [PTEROSTILBENE],–,30,Dose-dependent effect,–,–,–,–,–
O=c1c(O)c(-c2ccc(O)c(O)c2)oc2cc(O)cc(O)c12 [QUERCETIN],–,–,–,–,65.1,–,–,–
Oc1ccc(/C=C/c2cc(O)cc(O)c2)cc1 [RESVERATROL],–,44.1,Dose-dependent effect,–,57.5,–,–,–
